{"source": "patent US11873521B2", "about": "“Steviol glycoside and production method therefor, and sweetener composition containing same” (SUNTORY HOLDINGS LIMITED, priority 2017, dated 2024)", "key": {"[1]": {"experiment": "Evaluation of flavors of novel steviol glycosides in powder forms", "assay_type": "in vivo", "conditions": "only β-form", "description": "Flavors of Novel steviol glycosides 1 and 2 in powder forms were evaluated. Specifically, Compounds 15 (corresponding to Novel steviol glycoside 1) and 17 (corresponding to Novel steviol glycoside 2) obtained by chemical syntheses were subjected to high performance liquid chromatography (HPLC) to isolate only the β-form, which was made into a powder form and subjected to flavor evaluation. Panelists trained about sensory attributes of sweeteners members: Suntory Beverage and Food Ltd.) evaluated."}, "[2]": {"experiment": "Solubility in water", "assay_type": "physicochemical"}, "[3]": {"conditions": "samples adjusted to final Brix of 2 in terms of sucrose; cited from earlier work"}, "[4]": {"conditions": "background art; cited from earlier work"}}, "note": "“Also recorded” adds a separate entry of the source."}
{"molecule": "C=C1C[C@@]23CCC4[C@](C)(C(=O)O[C@@H]5OC(CO)[C@@H](O)[C@H](O)C5O[C@@H]5OC(C)[C@H](O)[C@H](O)C5O)CCC[C@@]4(C)[C@@H]2CCC1(O[C@@H]1OC(CO)[C@@H](O)[C@H](O[C@@H]2OC(CO)[C@@H](O)[C@H](O)C2O)C1O[C@@H]1OC(C)[C@H](O)[C@H](O)C1O)C3", "note": "(some centres unmarked) [Compound 15]", "values": [{"measurement": "undesirable flavor such as bitterness", "setting": "[1]", "result": "less undesirable flavor such as bitterness"}, {"measurement": "Presence of sweetness", "setting": "[1]; listed as Novel steviol glycoside 1", "result": "had sweetness; also recorded: Present"}, {"measurement": "solubility in water", "setting": "[2]", "result": "did not dissolve in water sufficiently"}]}
{"molecule": "C=C1C[C@@]23CCC4[C@](C)(C(=O)O[C@@H]5OC(CO)[C@@H](O)[C@H](O[C@@H]6OC(CO)[C@@H](O)[C@H](O)C6O)C5O[C@@H]5OC(C)[C@H](O)[C@H](O)C5O)CCC[C@@]4(C)[C@@H]2CCC1(O[C@@H]1OC(CO)[C@@H](O)[C@H](O[C@@H]2OC(CO)[C@@H](O)[C@H](O)C2O)C1O[C@@H]1OC(C)[C@H](O)[C@H](O)C1O)C3", "note": "(some centres unmarked) [Compound 17]", "values": [{"measurement": "undesirable flavor such as bitterness", "setting": "[1]", "result": "less undesirable flavor such as bitterness"}, {"measurement": "Presence of sweetness", "setting": "[1]; listed as Novel steviol glycoside 2", "result": "had sweetness; also recorded: Present"}, {"measurement": "Flavor characteristics", "setting": "[1]; listed as Novel steviol glycoside 2, bitterness", "result": "No bitterness"}, {"measurement": "Flavor characteristics", "setting": "[1]; listed as Novel steviol glycoside 2, overall flavor", "result": "Flavor resembled the mixture"}]}
{"molecule": "C=C1C[C@@]23CC[C@H]4[C@@](C)(CCC[C@@]4(C)C(=O)O[C@@H]4O[C@H](CO)[C@@H](O)[C@H](O)[C@H]4O)[C@@H]2CC[C@]1(O[C@@H]1O[C@H](CO)[C@@H](O)[C@H](O[C@@H]2O[C@H](CO)[C@@H](O)[C@H](O)[C@H]2O)[C@H]1O[C@@H]1O[C@H](CO)[C@@H](O)[C@H](O)[C@H]1O)C3", "note": "[Reb.A, rebaudioside A]", "values": [{"measurement": "sweetness level assumed for preparing beverage samples", "setting": "[3]", "result": 300}, {"measurement": "sweetness relative to sugar", "setting": "[4]", "result": "350-450 times the sweetness of sugar"}]}
{"molecule": "C=C1C[C@@]23CC[C@H]4[C@@](C)(CCC[C@@]4(C)C(=O)O[C@@H]4O[C@H](CO)[C@@H](O)[C@H](O)[C@H]4O[C@@H]4O[C@H](CO)[C@@H](O)[C@H](O)[C@H]4O)[C@@H]2CC[C@]1(O[C@@H]1O[C@H](CO)[C@@H](O)[C@H](O[C@@H]2O[C@H](CO)[C@@H](O)[C@H](O)[C@H]2O)[C@H]1O[C@@H]1O[C@H](CO)[C@@H](O)[C@H](O)[C@H]1O)C3", "note": "[Reb.D, rebaudioside D]", "values": [{"measurement": "sweetness level assumed for preparing beverage samples", "setting": "[3]", "result": 250}]}
{"molecule": "C=C1C[C@@]23CC[C@H]4[C@@](C)(CCC[C@@]4(C)C(=O)O[C@@H]4O[C@H](CO)[C@@H](O)[C@H](O)[C@H]4O)[C@@H]2CC[C@]1(O[C@@H]1O[C@H](CO)[C@@H](O)[C@H](O)[C@H]1O[C@@H]1O[C@H](CO)[C@@H](O)[C@H](O)[C@H]1O)C3", "note": "[Stevioside]", "values": [{"measurement": "sweetness relative to sugar", "setting": "[4]", "result": "250-300 times the sweetness of sugar"}]}
